{
  "source": "patent US20060240032A1",
  "about": "“Immunomodulating compositions and methods for use in the treatment of human autoimmune diseases” (priority 2005, published 2006)",
  "key": {"[1]": {"system": "EAE in SJL mice", "assay": "EAE in SJL mice immunized with PLP(139-151) in CFA (139CFA), treatment after immunization before disease", "assay_type": "in vivo", "conditions": "for development of clinical signs of EAE: intraperitoneal or subcutaneous, days 2, 7 and 10 after 139CFA", "description": "For all of these studies, MAP octamers of the 139-151aa peptide of proteolipid protein (PLP) were used and prepared by solid phase peptide synthesis as described above in the Materials and Methods. Each PLP(139-151) MAP octamer is comprised of eight polypeptide chains of the 139-151 aa of PLP each covalently linked to a central core as shown in FIG. 1. The general structure of the MAP (FIG. 1) is therefore dissimilar to the linear array typical of the peptide multimers used by others in the prior art (Falk, Rotzschke et al. 2000; Falk, Rotzschke et al. 2000; Stienekemeier, Falk et al. 2001). MAPs are also referred to as dendrimers to emphasize the branched nature of their structure (Bracci, Falciani et al. 2003). Initial studies with the 139-151 PLP MAP octamers (139MAP) used SJL mice that were first immunized with the encephalitogenic 139-151 PLP peptide in CFA (139CFA) and subsequently injected with saline solutions of 139MAP. […] For this initial study, mice were treated by intraperitoneal or subcutaneous injection with 139MAP on days 2, 7 and 10 following 139CFA injection."}, "[2]": {"system": "PLP(178-191) induced rEAE in SJL mice", "assay": "EAE in SJL mice immunized with PLP(178-191) in CFA (antigen specificity)", "assay_type": "in vivo", "conditions": "for disease development: SJL mice immunized with PLP(178-191) in CFA, treated days 2, 7 and 10 (FIG. 5)", "description": "The relapsing disease that develops in SJL mice is thought to occur due to the immune response that develops against additional encephalitogenic determinants found in PLP and MBP (Cross, Tuohy et al. 1993). […] Immunization of SJL mice with the PLP(178-191) peptide in CFA caused the development of clinically apparent disease 12-14 days following immunization. […] FIG. 6 represents a second experiment (4 animals per group) in which mice treated with 139MAP after they developed initial signs of EAE due to immunization with the PLP(178-191) peptide."}, "[3]": {"system": "adoptively transferred EAE in SJL mice", "assay": "EAE induced by adoptive transfer of PLP(139-151) specific T-cell lines into naive SJL mice", "assay_type": "in vivo", "conditions": "for additional (relapsing) episodes of EAE: adoptive transfer recipients, treatment initiated after clinical signs of EAE", "description": "The T-cell lines employed for these studies were derived from SJL mice previously immunized with 139CFA. The T-cell lines are used for adoptive transfer studies following the third round of antigen-stimulation in vitro. The source of antigen presenting cells is irradiated syngeneic thymus cells. This is a procedure that is routinely used by other investigators and is known by those of skill in the art (Bourdette, Vandenbark et al. 1989).\nWe treated some of the cell recipients with 50 micrograms 139MAP on three consecutive days with treatment initiated after the development of clinical signs of EAE. […] This is very clear in vivo data showing the 139MAP-associated inhibition of rEAE in the SJL mouse model. The 139MAP reagent inhibits the progression of clinically apparent disease as well as the onset and the continued development of EAE in both the actively-induced as well as the adoptively-transferred forms of EAE."}, "[4]": {"system": "PLP(139-151) peptide specific T-cell lines", "assay": "Proliferation of encephalitogenic T-cell line in response to antigen in vitro", "assay_type": "cell-based", "conditions": "T-cell line from 139CFA-immunized SJL mice"}, "[5]": {"system": "antigen specific lymphocytes", "assay": "Additional studies on lymphoid traffic after 139MAP treatment", "assay_type": "in vivo"}, "[6]": {"system": "relapsing EAE (rEAE) in SJL mice", "conditions": "for relapses (rEAE): 100 microgram doses on two consecutive days after clinical disease evident", "experimental": "Animals are graded as grade 1 when the first sign of disease is evident which is a flaccid tail.\nThe 139MAP-treated animals were given 100 microgram doses of 139MAP on two consecutive days. […] All reagents were administered on two consecutive days after clinical disease was evident."}, "[7]": {"system": "EAE in Lewis rats", "assay": "EAE in Lewis rats injected with gpMBP in CFA, treatment with saline solution of octamer or monomer", "assay_type": "in vivo", "conditions": "4 and 8 days after gpMBP-CFA", "description": "Experimental autoimmune encephalomyelitis (EAE) in the rat is an acute paralytic disease from which most animals spontaneously recover. The disease can be induced in susceptible inbred Lewis and DA rats with myelin basic protein (MBP), or encephalitogenic MBP peptides administered in complete Freund's adjuvant (CFA). The disease can be adoptively transferred to syngeneic recipients with primed T cells that have been reactivated in vitro with antigen. Studies of EAE in susceptible rats have provided many important insights into the interactions of T cells and accessory cells that culminate in the induction of the autoimmune response.\nThe influence of a saline solution of the 72-85gpMBP octamer on the course of EAE in Lewis rats previously injected with gpMBP emulsified in CFA was investigated. We injected 10 or 50 micrograms of the 72-85 gpMBP octamer into Lewis rats 4 and 8 days after they had been injected with gpMBP-CFA. […] Rats that received an equivalent amount of the 72-85 amino acid gpMBP peptide monomer at day 4 and day 8 developed clinical signs of disease."}, "[8]": {"system": "diabetes in NOD mice", "conditions": "cited from earlier work"}},
  "note": "Like-named read-outs stand apart in the source and are kept apart here. No end group written: not given here.",
  "data": [
    {"substance": "139MAP: chemically synthesized octamer of PLP 139-151 peptide (HSLGKWLGHPDKF, SEQ ID NO:8), each linked through KKKKKGG spacer to a lysine-branched core (also: octamer, each linked via KKKKKGG spacer to lysine-branched core (MAP))", "values": [
      {"measurement": "development of clinical signs of EAE", "setting": "[1]; SJL mice, 20 micrograms", "value": "Virtually all signs of disease were prevented"},
      {"measurement": "development of clinical signs of EAE", "setting": "[1]; SJL mice, 100 micrograms", "value": "Virtually all signs of disease were prevented"},
      {"measurement": "diminution of EAE", "setting": "[1]; SJL mice, three injections of 5 micrograms after 139CFA (FIG. 3)", "value": "considerable diminution of EAE"},
      {"measurement": "disease development", "setting": "[2]", "value": "no significant inhibition of disease development"},
      {"measurement": "disease development", "setting": "[2]; listed as MAP139 octamer", "value": "does not inhibit the development of PLP(178-191) induced rEAE"},
      {"measurement": "development of relapses", "setting": "[2]; SJL mice immunized with PLP(178-191), treated after initial signs of EAE", "value": "inhibits the development of relapses"},
      {"measurement": "continued development of the first episode of disease", "setting": "[3]; 50 micrograms on three consecutive days, initiated after clinical signs of EAE", "value": "inhibited the continued development of the first episode of disease"},
      {"measurement": "development of adoptively transferred EAE and subsequent relapses", "setting": "[3]; administered prior to onset of disease or at first indication of disease (tail flaccidity), data not shown", "value": "completely inhibited"},
      {"measurement": "additional (relapsing) episodes of EAE", "setting": "[3]", "value": "no or very modest signs of additional episodes of EAE"},
      {"measurement": "additional (relapsing) episodes of EAE", "setting": "[3]; listed as MAP139 octamer", "value": "inhibits the development of rEAE"},
      {"measurement": "T-cell line proliferation in response to antigen", "setting": "[4]", "value": "proliferated in response"},
      {"measurement": "lymphoid traffic to the autoimmune target organ", "setting": "[5]", "value": "alters lymphoid traffic to the autoimmune target organ"},
      {"measurement": "relapses (rEAE)", "setting": "[6]", "value": "inhibited the relapse component of this disease"},
      {"measurement": "subsequent course of disease", "setting": "[6]; 100 microgram doses on two consecutive days after clinical disease evident (grades 1-3)", "value": "profound and immediate influence on the subsequent course of disease"},
      {"measurement": "relapses (rEAE)", "setting": "[6]; listed as MAP139 octamer", "value": "effectively inhibits rEAE"}
    ]},
    {"substance": "72-85 amino acid gpMBP peptide monomer: monomer of the 72-85 amino acid peptide of guinea pig myelin basic protein (LPQKSQRSQDENPV; UniProt P25188 72-85, looked up, fragment) [reference compound]", "values": [
      {"measurement": "clinical signs of EAE", "setting": "[7]; 10 micrograms", "value": "No diminution of the signs of clinical disease"},
      {"measurement": "clinical signs of EAE", "setting": "[7]; 50 micrograms", "value": "modest diminution of the clinical signs of EAE"}
    ]},
    {"substance": "72-85 gpMBP octamer: chemically synthesized octamers of the 72-85 amino acid peptide of guinea pig myelin basic protein (SEQ ID NO:7) (LPQKSQRSQDENPV; also: octamer on lysine-branched core)", "values": [
      {"measurement": "clinical signs of EAE", "setting": "[7]; 10 micrograms", "value": "developed less severe disease compared to the control group"},
      {"measurement": "clinical signs of EAE", "setting": "[7]; 50 micrograms", "value": "did not develop any signs of clinical disease"},
      {"measurement": "development of EAE disease", "setting": "[1]; SJL mice immunized with 139CFA, control octamer, dose not stated (FIG. 3)", "value": "had no effect of the development of EAE disease"},
      {"measurement": "additional (relapsing) episodes of EAE", "setting": "[3]", "value": "developed a relapsing episode of clinically severe EAE"}
    ]},
    {"substance": "B(9-23): peptide of residues 9-23 of the insulin B chain (SEQ ID NO:2) (SHLVEALYLVCGERG)", "values": [
      {"measurement": "anaphylaxis", "setting": "[8]; peptide therapy", "value": "development of anaphylaxis"},
      {"measurement": "onset and incidence of diabetes", "setting": "[8]; subcutaneous or intranasal administration", "value": "marked delay in the onset and a decrease in the incidence of diabetes"}
    ]}
  ]
}
